Source: patent US20260158102A1, “CYCLIC PEPTIDE DERIVATIVE COMPOSITION FOR TREATING OR PREVENTING NEUROPATHIC PAIN AND/OR INFLAMMATORY PAIN” (DKS Co. Ltd., priority 2022, published 2026)

Test: Body weight measurement in rat STZ-induced diabetes model
Format: in vivo
Details: mean ± SE, in g (unit assumed)
Procedure: Compound 9 (50 mg/mL) was diluted with water for injection to obtain a 1 mg/mL administration specimen. For the specimens to be administered at 0.1 mg/mL and 0.01 mg/mL, the specimen to be administered at 1 mg/mL was diluted stepwise with water for injection. Each administration specimen was divided into PP disposable tubes every day and stored in a storehouse (freezer: MDF-MU339H-PJ, PHC Corporation) under the condition of freezing (−30° C. to −20° C., measured value: −26.4 to −24.5° C.). Preparation was performed on the day before the start of administration.
Water for injection was added to and dissolved in Pregabalin taken out from the capsule to obtain 2 mg/mL. It was prepared before use.
• Animal species: rat (SPF) • Strain: Crl: CD (SD) • Date of animal acquisition, gender, age in weeks, number of animals acquired, and weight range after 1 day of acquisition • First and second courses: Apr. 6, 2022, male, 7 weeks old, 35 animals, 217 to 237 g • Third and fourth courses: Apr. 13, 2022, male, 7 weeks old, 35 animals, 216 to 235 g • Source: […].
• Dose volume: calculated at 2 mL/kg based on the body weight on the day of administration. • Number of times of administration: once • Day of administration: 7 days before the day of starting administration of the test substance.
• Dose volume: calculated at 1 mL/kg based on the body weight on the day of administration. • Number of times of administration: 9 times • Interval of administration: once every 3 days (evaluation was performed on the day after administration) • Day of starting administration: day 8 of STZ administration (day of STZ administration is counted as day 1).
• Dose volume: calculated at 10 mL/kg based on the body weight on the day of administration. • Number of times of administration: Administration was performed once on the day of evaluation of neuropathic pain, twice in total, and on the other days of administration, a vehicle for a control substance (water for injection) was orally administered.
• Measurement was performed every day after the day of STZ administration.
The mean and standard error of each group were calculated for the 50% withdrawal threshold, body weight, and blood glucose level.
The body weight was an integer.
No significant difference test of body weight and blood glucose levels was performed.

## CC[C@@]1(C)Oc2cc(ccc2O)C[C@H](NC)C(=O)N[C@@H](C(C)C)C(=O)N[C@@H]1C(=O)N[C@@H](CC(=O)O)C(=O)O [Compound 9]
0.1 mg/kg iv, day 10 of STZ administration
  Body weight: 295 ± 6
0.1 mg/kg iv, day 11 of STZ administration
  Body weight: 298 ± 6
0.1 mg/kg iv, day 12 of STZ administration
  Body weight: 300 ± 4
0.1 mg/kg iv, day 13 of STZ administration
  Body weight: 303 ± 6
0.1 mg/kg iv, day 14 of STZ administration
  Body weight: 305 ± 5
0.1 mg/kg iv, day 15 of STZ administration
  Body weight: 300 ± 6
0.1 mg/kg iv, day 16 of STZ administration
  Body weight: 302 ± 7
0.1 mg/kg iv, day 17 of STZ administration
  Body weight: 307 ± 7
0.1 mg/kg iv, day 18 of STZ administration
  Body weight: 305 ± 7
0.1 mg/kg iv, day 19 of STZ administration
  Body weight: 310 ± 8
0.1 mg/kg iv, day 20 of STZ administration
  Body weight: 312 ± 8
0.1 mg/kg iv, day 21 of STZ administration
  Body weight: 307 ± 7
0.1 mg/kg iv, day 22 of STZ administration
  Body weight: 311 ± 7
0.1 mg/kg iv, day 23 of STZ administration
  Body weight: 314 ± 8
0.1 mg/kg iv, day 24 of STZ administration
  Body weight: 312 ± 7
0.1 mg/kg iv, day 25 of STZ administration
  Body weight: 312 ± 7
0.1 mg/kg iv, day 26 of STZ administration
  Body weight: 312 ± 7
0.1 mg/kg iv, day 27 of STZ administration
  Body weight: 310 ± 8
0.1 mg/kg iv, day 28 of STZ administration
  Body weight: 315 ± 8
0.1 mg/kg iv, day 29 of STZ administration
  Body weight: 311 ± 7
0.1 mg/kg iv, day 30 of STZ administration
  Body weight: 313 ± 8
0.1 mg/kg iv, day 31 of STZ administration
  Body weight: 310 ± 8
0.1 mg/kg iv, day 32 of STZ administration
  Body weight: 312 ± 8
0.1 mg/kg iv, day 33 of STZ administration
  Body weight: 308 ± 8
1 mg/kg iv, day 1 of STZ administration
  Body weight: 293 ± 5
1 mg/kg iv, day 2 of STZ administration
  Body weight: 282 ± 6
1 mg/kg iv, day 3 of STZ administration
  Body weight: 277 ± 4
1 mg/kg iv, day 4 of STZ administration
  Body weight: 279 ± 4
1 mg/kg iv, day 5 of STZ administration
  Body weight: 284 ± 5
1 mg/kg iv, day 6 of STZ administration
  Body weight: 286 ± 5
1 mg/kg iv, day 7 of STZ administration
  Body weight: 291 ± 5
1 mg/kg iv, day 8 of STZ administration
  Body weight: 290 ± 5
1 mg/kg iv, day 9 of STZ administration
  Body weight: 291 ± 5
1 mg/kg iv, day 10 of STZ administration
  Body weight: 294 ± 6
1 mg/kg iv, day 11 of STZ administration
  Body weight: 300 ± 7
1 mg/kg iv, day 12 of STZ administration
  Body weight: 299 ± 6
1 mg/kg iv, day 13 of STZ administration
  Body weight: 303 ± 6
1 mg/kg iv, day 14 of STZ administration
  Body weight: 302 ± 6
1 mg/kg iv, day 15 of STZ administration
  Body weight: 303 ± 7
1 mg/kg iv, day 16 of STZ administration
  Body weight: 303 ± 8
1 mg/kg iv, day 17 of STZ administration
  Body weight: 305 ± 8
1 mg/kg iv, day 18 of STZ administration
  Body weight: 306 ± 7
1 mg/kg iv, day 19 of STZ administration
  Body weight: 307 ± 7
1 mg/kg iv, day 20 of STZ administration
  Body weight: 305 ± 9
1 mg/kg iv, day 21 of STZ administration
  Body weight: 304 ± 8
1 mg/kg iv, day 22 of STZ administration
  Body weight: 309 ± 8
1 mg/kg iv, day 23 of STZ administration
  Body weight: 309 ± 9
1 mg/kg iv, day 24 of STZ administration
  Body weight: 311 ± 9
1 mg/kg iv, day 25 of STZ administration
  Body weight: 309 ± 9
1 mg/kg iv, day 26 of STZ administration
  Body weight: 311 ± 9
1 mg/kg iv, day 27 of STZ administration
  Body weight: 308 ± 9
1 mg/kg iv, day 28 of STZ administration
  Body weight: 309 ± 9
1 mg/kg iv, day 29 of STZ administration
  Body weight: 310 ± 9
1 mg/kg iv, day 30 of STZ administration
  Body weight: 308 ± 10
1 mg/kg iv, day 31 of STZ administration
  Body weight: 306 ± 9
1 mg/kg iv, day 32 of STZ administration
  Body weight: 309 ± 10
1 mg/kg iv, day 33 of STZ administration
  Body weight: 308 ± 10
